Values quoted from earlier work, collected in patent US8278268B2, “Combination therapy comprising glucose reabsorption inhibitors and PPAR modulators” (Ortho-McNeil Pharmaceutical, Inc., priority 2001, dated 2012).
Where two headings read alike, the source gives them in different places.

Key:
SGLT1 = SGLT1 (Homo sapiens, UniProt P13866); settings: read-out: Km in vitro; Sm. Intestine; stoichiometry 2:1; for D-glucose; cited from earlier work
SGLT2 (SAAT1) = settings: cited from earlier work; for Km: for D-glucose

Sequence of SGLT1 (P13866 whole entry, species assumed): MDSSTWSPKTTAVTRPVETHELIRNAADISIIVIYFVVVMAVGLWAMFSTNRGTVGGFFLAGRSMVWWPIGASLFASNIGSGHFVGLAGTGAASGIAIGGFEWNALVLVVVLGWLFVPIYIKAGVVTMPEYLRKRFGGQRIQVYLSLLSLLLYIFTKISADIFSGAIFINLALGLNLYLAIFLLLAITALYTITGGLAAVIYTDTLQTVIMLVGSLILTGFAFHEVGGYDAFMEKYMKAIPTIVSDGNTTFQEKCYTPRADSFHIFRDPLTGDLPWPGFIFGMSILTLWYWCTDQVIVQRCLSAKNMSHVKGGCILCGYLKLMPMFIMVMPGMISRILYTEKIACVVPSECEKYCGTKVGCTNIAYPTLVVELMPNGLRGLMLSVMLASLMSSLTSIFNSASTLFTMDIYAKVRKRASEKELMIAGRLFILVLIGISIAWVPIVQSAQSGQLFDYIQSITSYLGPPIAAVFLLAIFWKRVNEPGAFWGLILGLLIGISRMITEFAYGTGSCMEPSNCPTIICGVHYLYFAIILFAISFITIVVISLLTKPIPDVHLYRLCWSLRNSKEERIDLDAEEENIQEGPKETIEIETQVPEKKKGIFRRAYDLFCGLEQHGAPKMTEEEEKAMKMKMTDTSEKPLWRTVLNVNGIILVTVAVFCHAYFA

SMILES: O=C[C@H](O)[C@@H](O)[C@H](O)[C@H](O)CO [D-glucose]
- Km (SGLT1): 100 µM
- TmG in vitro (maximal transport rate) (SGLT2 (SAAT1); Kidney (S1, S3), stoichiometry 2:1): 7.9 pmol/min/mm
- Km (SGLT2 (SAAT1); Kidney (S1, S3), stoichiometry 2:1, read-out: Km in vitro): 390 µM
- Km (SGLT2 (SAAT1); Kidney (S1, S3), stoichiometry 2:1, read-out: Km in vivo): 300 µM
- TmG in vitro (maximal transport rate) (SGLT2 (SAAT1); Kidney (S3), stoichiometry 1:1): 83 pmol/min/mm
- Km (SGLT2 (SAAT1); Kidney (S3), stoichiometry 1:1, read-out: Km in vitro): 1640 µM
- Km (SGLT2 (SAAT1); Kidney (S3), stoichiometry 1:1, read-out: Km in vivo): 6000 µM
